Measured values: patent US6525001B1, “Substituted pyrimidine and pyridine herbicides” (Mid-American Commercialization Corporation, priority 1997, dated 2003)

Key:
Format in all cases: in vivo
Parameters in all cases: key: 0 is no effect; 10 is complete control
[1] = test system: rice (Oryza sativa); assay: Test B flood test
In short: (§1)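 Plants were grown to the 2-leaf stage before treatment with test chemical, then held in a greenhouse for twelve to sixteen days. Injury was visually rated against untreated controls on a 0–10 scale, where 0 is no effect and 10 is complete control.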

[2] = test system: smallflower flatsedge (Cyperus difformis); assay: Test B flood test
In short: as §1

[3] = test system: duck salad (Heteranthera limosa); assay: Test B flood test
In short: as §1

[4] = test system: bamyardgrass (Echinochloa crus-galli); assay: Test B flood test
In short: as §1

[5] = test system: rape (Brassica napus); assay: Test B pre-/postemergence
In short: (§2)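 Seeds were planted and sprayed preemergence, while plants at 2 to 18 cm (1- to 4-leaf stage) were sprayed postemergence at the same time, with test chemical in a non-phytotoxic solvent mixture containing surfactant. After twelve to sixteen days in a greenhouse, injury was rated visually against untreated controls on a 0–10 scale.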

[6] = test system: crabgrass (Digitaria sanguinalis); assay: Test B pre-/postemergence
In short: as §2

[7] = test system: corn (Zea mays); assay: Test B pre-/postemergence
In short: as §2

[8] = test system: wheat (Triticum aestivum); assay: Test B pre-/postemergence
In short: as §2

[9] = test system: giant foxtail (Setaria faberii); assay: Test B pre-/postemergence
In short: as §2

[10] = test system: sugar beet (Beta vulgaris); assay: Test B pre-/postemergence
In short: as §2

[11] = test system: soybean (Glycine max); assay: Test B pre-/postemergence
In short: as §2

[12] = test system: velvetleaf (Abutilon theophrasti); assay: Test B pre-/postemergence
In short: as §2

[13] = test system: bedstraw (Galium aparine); assay: Test B pre-/postemergence
In short: as §2

[14] = test system: purple nutsedge (Cyperus rotundus); assay: Test B pre-/postemergence
In short: as §2

[15] = test system: wild oat (Avena fatua); assay: Test B pre-/postemergence
In short: as §2

[16] = Rate 62 g/ha, Postemergence (flood test)
[17] = Rate 125 g/ha, Postemergence, flood test
[18] = Rate 250 g/ha, Postemergence (flood test species)
[19] = Rate 500 g/ha, Postemergence (flood test species)

## Cc1cnc(-c2ccc(OC(F)(F)F)cc2)nc1Cc1cccc(C(F)(F)F)c1 [Compound 16]
[1]; [16]
  Plant response rating, Rice: 1
[1]; [17]
  Plant response rating, Rice: 1
[1]; [18]
  Plant response rating, Rice: 3
[1]; [19]
  Plant response rating, Rice: 4
[2]; [16]
  Plant response rating, S. Flatsedge: 1
[2]; [17]
  Plant response rating, S. Flatsedge: 2
[2]; [18]
  Plant response rating, S. Flatsedge: 2
[2]; [19]
  Plant response rating, S. Flatsedge: 3
[3]; [16]
  Plant response rating, Ducksalad: 0
[3]; [17]
  Plant response rating, Ducksalad: 0
[3]; [18]
  Plant response rating, Ducksalad: 1
[3]; [19]
  Plant response rating, Ducksalad: 2
[4]; [16]
  Plant response rating, Barnyardgrass: 2
[4]; [17]
  Plant response rating, Barnyardgrass: 3
[4]; [18]
  Plant response rating, Barnyardgrass: 4
[4]; [19]
  Plant response rating, Barnyardgrass: 4
[5]; Rate 62 g/ha, Postemergence
  Plant response rating, Rape: 1
[5]; Rate 62 g/ha, Preemergence
  Rape plant response rating: 0
[5]; Rate 125 g/ha, Postemergence
  Plant response rating, Rape: 2
[5]; Rate 125 g/ha, Preemergence
  Rape plant response rating: 0
[5]; Rate 250 g/ha, Postemergence
  Plant response rating, Rape: 2
[5]; Rate 250 g/ha, Preemergence
  Plant response rating, Rape: 0
[5]; Rate 500 g/ha, Postemergence
  Plant response rating, Rape: 5
[5]; Rate 500 g/ha, Preemergence
  Plant response rating, Rape: 1
[6]; Rate 62 g/ha, Postemergence
  Plant response rating, Crabgrass: 2
[6]; Rate 62 g/ha, Preemergence
  Crabgrass plant response rating: 0
[6]; Rate 125 g/ha, Postemergence
  Plant response rating, Crabgrass: 2
[6]; Rate 125 g/ha, Preemergence
  Crabgrass plant response rating: 0
[6]; Rate 250 g/ha, Postemergence
  Plant response rating, Crabgrass: 2
[6]; Rate 250 g/ha, Preemergence
  Plant response rating, Crabgrass: 2
[6]; Rate 500 g/ha, Postemergence
  Plant response rating, Crabgrass: 7
[6]; Rate 500 g/ha, Preemergence
  Plant response rating, Crabgrass: 8
[7]; Rate 62 g/ha, Postemergence
  Plant response rating, Corn: 1
[7]; Rate 62 g/ha, Preemergence
  Corn plant response rating: 0
[7]; Rate 125 g/ha, Postemergence
  Plant response rating, Corn: 1
[7]; Rate 125 g/ha, Preemergence
  Corn plant response rating: 0
[7]; Rate 250 g/ha, Postemergence
  Plant response rating, Corn: 1
[7]; Rate 250 g/ha, Preemergence
  Plant response rating, Corn: 0
[7]; Rate 500 g/ha, Postemergence
  Plant response rating, Corn: 1
[7]; Rate 500 g/ha, Preemergence
  Plant response rating, Corn: 0
[8]; Rate 62 g/ha, Postemergence
  Plant response rating, Wheat: 0
[8]; Rate 62 g/ha, Preemergence
  Wheat plant response rating: 0
[8]; Rate 125 g/ha, Postemergence
  Plant response rating, Wheat: 0
[8]; Rate 125 g/ha, Preemergence
  Wheat plant response rating: 0
[8]; Rate 250 g/ha, Postemergence
  Plant response rating, Wheat: 0
[8]; Rate 250 g/ha, Preemergence
  Plant response rating, Wheat: 0
[8]; Rate 500 g/ha, Postemergence
  Plant response rating, Wheat: 1
[8]; Rate 500 g/ha, Preemergence
  Plant response rating, Wheat: 0
[9]; Rate 62 g/ha, Postemergence
  Plant response rating, Giant foxtail: 1
[9]; Rate 62 g/ha, Preemergence
  Giant foxtail plant response rating: 0
[9]; Rate 125 g/ha, Postemergence
  Plant response rating, Giant foxtail: 1
[9]; Rate 125 g/ha, Preemergence
  Giant foxtail plant response rating: 3
[9]; Rate 250 g/ha, Postemergence
  Plant response rating, Giant foxtail: 1
[9]; Rate 250 g/ha, Preemergence
  Plant response rating, Giant foxtail: 7
[9]; Rate 500 g/ha, Postemergence
  Plant response rating, Giant foxtail: 3
[9]; Rate 500 g/ha, Preemergence
  Plant response rating, Giant foxtail: 8
[10]; Rate 62 g/ha, Postemergence
  Plant response rating, Sugarbeets: 8
[10]; Rate 62 g/ha, Preemergence
  Sugarbeets plant response rating: 0
[10]; Rate 125 g/ha, Postemergence
  Plant response rating, Sugarbeets: 8
[10]; Rate 125 g/ha, Preemergence
  Sugarbeets plant response rating: 1
[10]; Rate 250 g/ha, Postemergence
  Plant response rating, Sugarbeets: 9
[10]; Rate 250 g/ha, Preemergence
  Plant response rating, Sugarbeets: 7
[10]; Rate 500 g/ha, Postemergence
  Plant response rating, Sugarbeets: 9
[10]; Rate 500 g/ha, Preemergence
  Plant response rating, Sugarbeets: 9
[11]; Rate 62 g/ha, Postemergence
  Plant response rating, Soybean: 3
[11]; Rate 62 g/ha, Preemergence
  Soybean plant response rating: 0
[11]; Rate 125 g/ha, Postemergence
  Plant response rating, Soybean: 3
[11]; Rate 125 g/ha, Preemergence
  Soybean plant response rating: 0
[11]; Rate 250 g/ha, Postemergence
  Plant response rating, Soybean: 4
[11]; Rate 250 g/ha, Preemergence
  Plant response rating, Soybean: 0
[11]; Rate 500 g/ha, Postemergence
  Plant response rating, Soybean: 4
[11]; Rate 500 g/ha, Preemergence
  Plant response rating, Soybean: 0
[12]; Rate 62 g/ha, Postemergence
  Plant response rating, Velvetleaf: 1
[12]; Rate 62 g/ha, Preemergence
  Velvetleaf plant response rating: 0
[12]; Rate 125 g/ha, Postemergence
  Plant response rating, Velvetleaf: 2
[12]; Rate 125 g/ha, Preemergence
  Velvetleaf plant response rating: 0
[12]; Rate 250 g/ha, Postemergence
  Plant response rating, Velvetleaf: 2
[12]; Rate 250 g/ha, Preemergence
  Plant response rating, Velvetleaf: 1
[12]; Rate 500 g/ha, Postemergence
  Plant response rating, Velvetleaf: 2
[12]; Rate 500 g/ha, Preemergence
  Plant response rating, Velvetleaf: 1
[13]; Rate 62 g/ha, Postemergence
  Plant response rating, Bedstraw: 3
[13]; Rate 62 g/ha, Preemergence
  Bedstraw plant response rating: 0
[13]; Rate 125 g/ha, Postemergence
  Plant response rating, Bedstraw: 4
[13]; Rate 125 g/ha, Preemergence
  Bedstraw plant response rating: 0
[13]; Rate 250 g/ha, Postemergence
  Plant response rating, Bedstraw: 4
[13]; Rate 250 g/ha, Preemergence
  Plant response rating, Bedstraw: 0
[13]; Rate 500 g/ha, Postemergence
  Plant response rating, Bedstraw: 5
[13]; Rate 500 g/ha, Preemergence
  Plant response rating, Bedstraw: 1
[14]; Rate 62 g/ha, Postemergence
  Plant response rating, Nutsedge: 0
[14]; Rate 62 g/ha, Preemergence
  Nutsedge plant response rating: 0
[14]; Rate 125 g/ha, Postemergence
  Plant response rating, Nutsedge: 0
[14]; Rate 125 g/ha, Preemergence
  Nutsedge plant response rating: 0
[14]; Rate 250 g/ha, Postemergence
  Plant response rating, Nutsedge: 0
[14]; Rate 250 g/ha, Preemergence
  Plant response rating, Nutsedge: 0
[14]; Rate 500 g/ha, Postemergence
  Plant response rating, Nutsedge: 1
[14]; Rate 500 g/ha, Preemergence
  Plant response rating, Nutsedge: 0
[15]; Rate 62 g/ha, Postemergence
  Plant response rating, Wild oats: 0
[15]; Rate 62 g/ha, Preemergence
  Wild oats plant response rating: 0
[15]; Rate 125 g/ha, Postemergence
  Plant response rating, Wild oats: 0
[15]; Rate 125 g/ha, Preemergence
  Wild oats plant response rating: 1
[15]; Rate 250 g/ha, Postemergence
  Plant response rating, Wild oats: 1
[15]; Rate 250 g/ha, Preemergence
  Plant response rating, Wild oats: 2
[15]; Rate 500 g/ha, Postemergence
  Plant response rating, Wild oats: 1
[15]; Rate 500 g/ha, Preemergence
  Plant response rating, Wild oats: 3
